This assay concerns the target wild-type human cardiac sodium channel, hNav1.5 (Homo sapiens, UniProt Q14524). Put plainly: Late INa screening assay (late sodium current, PatchXpress whole cell patch clamp). As to conditions: compound at 10 μM; read-out: Late INa % blk. Type of assay: cell-based. (In general: In patch-clamp work, channel activity is measured electrically.)
Chain of wild-type human cardiac sodium channel, hNav1.5 (Q14524 whole entry): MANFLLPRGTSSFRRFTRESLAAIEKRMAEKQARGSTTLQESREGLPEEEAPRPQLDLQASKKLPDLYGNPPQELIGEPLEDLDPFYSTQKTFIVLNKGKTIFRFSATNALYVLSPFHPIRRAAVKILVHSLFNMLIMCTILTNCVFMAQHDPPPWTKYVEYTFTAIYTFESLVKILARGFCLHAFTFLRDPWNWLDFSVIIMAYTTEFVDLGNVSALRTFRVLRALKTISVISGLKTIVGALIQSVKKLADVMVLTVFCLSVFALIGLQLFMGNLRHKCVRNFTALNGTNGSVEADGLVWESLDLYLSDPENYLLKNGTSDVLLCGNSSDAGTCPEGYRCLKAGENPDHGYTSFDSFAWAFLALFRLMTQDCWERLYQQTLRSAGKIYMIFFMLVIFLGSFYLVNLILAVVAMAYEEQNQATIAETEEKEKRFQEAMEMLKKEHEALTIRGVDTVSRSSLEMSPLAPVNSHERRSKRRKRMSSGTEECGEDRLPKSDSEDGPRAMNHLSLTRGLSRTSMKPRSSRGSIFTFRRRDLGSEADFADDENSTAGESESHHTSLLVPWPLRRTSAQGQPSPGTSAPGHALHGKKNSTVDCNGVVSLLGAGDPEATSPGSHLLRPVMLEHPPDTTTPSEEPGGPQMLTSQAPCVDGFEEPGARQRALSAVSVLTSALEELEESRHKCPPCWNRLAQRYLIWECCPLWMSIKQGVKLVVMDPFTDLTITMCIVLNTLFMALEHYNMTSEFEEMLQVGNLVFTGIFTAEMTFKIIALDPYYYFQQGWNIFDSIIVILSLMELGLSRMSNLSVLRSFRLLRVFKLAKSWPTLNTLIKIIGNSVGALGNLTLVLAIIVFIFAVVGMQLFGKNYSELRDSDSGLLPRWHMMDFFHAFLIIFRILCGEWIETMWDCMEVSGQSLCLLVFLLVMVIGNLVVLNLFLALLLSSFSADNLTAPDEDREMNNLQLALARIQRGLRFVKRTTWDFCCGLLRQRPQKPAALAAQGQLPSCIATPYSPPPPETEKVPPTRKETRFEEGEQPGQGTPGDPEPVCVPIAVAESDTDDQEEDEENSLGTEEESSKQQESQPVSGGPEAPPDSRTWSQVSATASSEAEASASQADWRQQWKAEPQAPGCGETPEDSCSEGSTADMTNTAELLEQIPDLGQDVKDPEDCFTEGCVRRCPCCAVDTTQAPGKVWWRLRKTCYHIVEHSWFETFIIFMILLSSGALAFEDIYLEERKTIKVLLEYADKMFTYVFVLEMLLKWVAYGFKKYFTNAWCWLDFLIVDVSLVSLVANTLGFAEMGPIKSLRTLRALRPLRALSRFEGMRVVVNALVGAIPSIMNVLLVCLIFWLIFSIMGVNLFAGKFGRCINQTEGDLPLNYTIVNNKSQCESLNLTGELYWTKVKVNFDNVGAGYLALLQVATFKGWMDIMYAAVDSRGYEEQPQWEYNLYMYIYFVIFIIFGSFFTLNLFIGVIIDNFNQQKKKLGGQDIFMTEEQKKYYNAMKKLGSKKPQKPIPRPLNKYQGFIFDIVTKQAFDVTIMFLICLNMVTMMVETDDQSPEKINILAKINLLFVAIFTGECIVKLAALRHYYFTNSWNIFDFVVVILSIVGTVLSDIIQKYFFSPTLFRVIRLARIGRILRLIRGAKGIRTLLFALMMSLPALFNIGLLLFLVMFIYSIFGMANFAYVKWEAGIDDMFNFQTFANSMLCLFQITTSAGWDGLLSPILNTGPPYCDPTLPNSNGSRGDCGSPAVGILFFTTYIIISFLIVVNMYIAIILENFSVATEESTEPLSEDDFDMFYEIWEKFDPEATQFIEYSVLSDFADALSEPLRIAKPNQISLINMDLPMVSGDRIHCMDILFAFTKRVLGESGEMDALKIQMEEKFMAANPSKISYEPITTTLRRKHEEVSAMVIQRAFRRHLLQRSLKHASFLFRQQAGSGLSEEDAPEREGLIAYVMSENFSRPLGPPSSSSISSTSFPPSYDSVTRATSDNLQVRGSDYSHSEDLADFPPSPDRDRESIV
In the case of `CC1=C(C(=O)OCc2ccccc2)C(c2cccc3ccccc23)n2nnnc2N1Cc1nnn[nH]1` (stereo not drawn) [PT-326, benzyl 4-((1H-tetrazol-5-yl)methyl)-5-methyl-7-(naphthalen-1-yl)-4,7-dihydrotetrazolo[1,5-a]pyrimidine-6-carboxylate], the inhibition at 10 µM was found to be 39.9%. In the case of `CCOC(=O)C1=C(C)NC(C)=C(C(=O)OCC)C1c1ccc(CC)o1` [PT-121, diethyl 4-(5-ethylfuran-2-yl)-2,6-dimethyl-1,4-dihydropyridine-3,5-dicarboxylate], the inhibition at 10 µM turned out to be 54.8%.

For the compound `CC1=C(C(=O)OCc2ccccc2)C(c2ccccc2-c2ccc(N3CCOCC3)cc2)n2nnnc2N1` (stereo not drawn) [PT-360, benzyl 5-methyl-7-(4′-morpholinobiphenyl-2-yl)-4,7-dihydrotetrazolo[1,5-a]pyrimidine-6-carboxylate], the inhibition at 10 µM turned out to be 7.2%. For the compound `COC(=O)C1=C(C)Nc2nnnn2C1c1c(-c2ccc(C(=O)O)cc2)sc2ccccc12` (stereo not drawn) [PT-296, 4-(3-(6-(methoxycarbonyl)-5-methyl-4,7-dihydrotetrazolo[1,5-a]pyrimidin-7-yl)benzo[b]thiophen-2-yl)benzoic acid], the inhibition at 10 µM came to 13.3%. In the case of `CCOC(=O)c1c(C)nc2[nH]ncc2c1-c1ccccc1` [PT-474, ethyl 6-methyl-4-phenyl-1H-pyrazolo[3,4-b]pyridine-5-carboxylate] it was 22%; in that of `CC1=C(C(=O)OCCOc2ccc(C(=O)O)cc2)C(c2cccc3ccccc23)n2nnnc2N1` (stereo not drawn) [PT-290, 4-(2-(5-methyl-7-(naphthalen-1-yl)-4,7-dihydrotetrazolo[1,5-a]pyrimidine-6-carbonyloxy)ethoxy)benzoic acid], 14.4%. In the case of `CC1=C(C(=O)OCc2ccccc2)C(c2ccsc2B(O)O)n2nnnc2N1` (stereo not drawn) [PT-277, 3-(6-(benzyloxycarbonyl)-5-methyl-4,7-dihydrotetrazolo[1,5-a]pyrimidin-7-yl)thiophen-2-ylboronic acid], the inhibition at 10 µM is 18%. As for `CC1=C(C(=O)OCc2ccc(OC(F)(F)F)cc2)C(c2cccc3ccccc23)n2nnnc2N1` (stereo not drawn) [PT-052, 4-(trifluoromethoxy)benzyl 5-methyl-7-(naphthalen-1-yl)-4,7-dihydrotetrazolo[1,5-a]pyrimidine-6-carboxylate], the inhibition at 10 µM amounted to 9.1%. Take `CC1=C(C(=O)OC(C)(C)C)C(c2cccc3ccccc23)n2nnnc2N1` (stereo not drawn) [PT-023, tert-butyl 5-methyl-7-(naphthalen-1-yl)-4,7-dihydrotetrazolo[1,5-a]pyrimidine-6-carboxylate]: the inhibition at 10 µM was determined as 32.8%. Turning to `CC1=C(C(=O)OCc2ccccc2)C(c2cnc(N3CCN(C)CC3)s2)n2nnnc2N1` (stereo not drawn) [PT-341, benzyl 5-methyl-7-(2-(4-methylpiperazin-1-yl)thiazol-5-yl)-4,7-dihydrotetrazolo[1,5-a]pyrimidine-6-carboxylate], the inhibition at 10 µM was 23.3%.

For `CCCC1=C(C(=O)OCC)C(c2ccsc2)C2=C(CCCC2=O)N1` (stereo not drawn) [PT-148, ethyl 5-oxo-2-propyl-4-(thiophen-3-yl)-1,4,5,6,7,8-hexahydroquinoline-3-carboxylate], the inhibition at 10 µM came to 7.6%.

With `COc1ccc(C2C(C(=O)OCc3ccccc3)=C(C)Nc3nnnn32)c2ccccc12` (stereo not drawn) [PT-421, benzyl 7-(4-methoxynaphthalen-1-yl)-5-methyl-4,7-dihydrotetrazolo[1,5-a]pyrimidine-6-carboxylate], the inhibition at 10 µM stood at 23.5%. The figure for `CCOC(=O)C1=C(C)Nc2[nH]ncc2C1c1ccc(N(C)C)c2ccccc12` (stereo not drawn) [PT-454, ethyl 4-(4-(dimethylamino)naphthalen-1-yl)-6-methyl-4,7-dihydro-1H-pyrazolo[3,4-b]pyridine-5-carboxylate] is 30.2%. In the case of `CCOC(=O)C1=C(C)Nc2nnnn2C1c1ccccc1Oc1ccc(-c2nnn[nH]2)cc1` (stereo not drawn) [PT-481, ethyl 7-(2-(4-(1H-tetrazol-5-yl)phenoxy)phenyl)-5-methyl-4,7-dihydrotetrazolo[1,5-a]pyrimidine-6-carboxylate] it was 18%; in that of `CC1=C(C(=O)OCc2ccccc2)C(c2cc3ccccc3s2)C2=C(CCCC2=O)N1` (stereo not drawn) [PT-335, benzyl 4-(benzo[b]thiophen-2-yl)-2-methyl-5-oxo-1,4,5,6,7,8-hexahydroquinoline-3-carboxylate], 58.1%. `CCOC(=O)C1=C(C)NC2=C(C(=O)CC(C)(C)C2)C1c1cccc(C(=O)O)c1` (stereo not drawn) [PT-132, 3-(3-(ethoxycarbonyl)-2,7,7-trimethyl-5-oxo-1,4,5,6,7,8-hexahydroquinolin-4-yl)benzoic acid]: the inhibition at 10 µM was -5.3%. In the case of `CCOC(=O)C1=C(C)Nc2nnnn2C1c1ccccc1-n1cncn1` (stereo not drawn) [PT-475, ethyl 7-(2-(1H-1,2,4-triazol-1-yl)phenyl)-5-methyl-4,7-dihydrotetrazolo[1,5-a]pyrimidine-6-carboxylate] it was 5.5%; in that of `CCOC(=O)C1=C(C)Nc2nnnn2C1c1ccccc1OCc1ccc(C(=O)OCC)cc1` (stereo not drawn) [PT-482, ethyl 7-(2-(4-(ethoxycarbonyl)benzyloxy)phenyl)-5-methyl-4,7-dihydrotetrazolo[1,5-a]pyrimidine-6-carboxylate], 3.2%. Turning to `CC1=C(C(=O)OCc2ccccc2)C(c2ccccc2-c2ccc([N+](=O)[O-])cc2)n2nnnc2N1` (stereo not drawn) [PT-361, benzyl 5-methyl-7-(4′-nitrobiphenyl-2-yl)-4,7-dihydrotetrazolo[1,5-a]pyrimidine-6-carboxylate], the inhibition at 10 µM was 41%. For the compound `CC1=C(C(=O)OCc2ccccc2)C(c2cccc3ccccc23)c2c(-c3cccs3)n[nH]c2N1` (stereo not drawn) [PT-076, benzyl 6-methyl-4-(naphthalen-1-yl)-3-(thiophen-2-yl)-4,7-dihydro-1H-pyrazolo[3,4-b]pyridine-5-carboxylate], the inhibition at 10 µM is -4.3%. The figure for `CC1=C(C(=O)NNC(=O)Cc2ccccc2)C(c2cccc3ccccc23)n2nnnc2N1` (stereo not drawn) [PT-309, 5-methyl-7-(naphthalen-1-yl)-N′-(2-phenylacetyl)-4,7-dihydrotetrazolo[1,5-a]pyrimidine-6-carbohydrazide] is 8.2%; for `CC1=C(C(=O)OCc2ccccc2)C(c2ccccc2-c2cccc(C(=O)O)c2)n2nnnc2N1` (stereo not drawn) [PT-253, 2′-(6-(benzyloxycarbonyl)-5-methyl-4,7-dihydrotetrazolo[1,5-a]pyrimidin-7-yl)biphenyl-3-carboxylic acid] it is 9.1%; for `CC1=C(C(=O)OCc2ccccc2)C(c2ccccc2-c2cnc(N)nc2)n2nnnc2N1` (stereo not drawn) [PT-375, benzyl 7-(2-(2-aminopyrimidin-5-yl)phenyl)-5-methyl-4,7-dihydrotetrazolo[1,5-a]pyrimidine-6-carboxylate] it is 50.7%. On to `CC1=C(C(=O)OCc2ccccc2)C(c2cccs2)c2cn[nH]c2N1` (stereo not drawn) [PT-370, benzyl 6-methyl-4-(thiophen-2-yl)-4,7-dihydro-1H-pyrazolo[3,4-b]pyridine-5-carboxylate], for which the inhibition at 10 µM was 24.7%.

Consider `CCOC(=O)C1=C(C)NC2=C(C(=O)CCC2)C1c1ccc(N(C)C)c2ccccc12` (stereo not drawn) [PT-139, ethyl 4-(4-(dimethylamino)naphthalen-1-yl)-2-methyl-5-oxo-1,4,5,6,7,8-hexahydroquinoline-3-carboxylate], for which the inhibition at 10 µM is 21.8%. In the case of `CC1=C(C(=O)OCc2cccc(-c3ccccc3)c2)C(c2cccc3ccccc23)n2nnnc2N1` (stereo not drawn) [PT-006, biphenyl-3-ylmethyl 5-methyl-7-(naphthalen-1-yl)-4,7-dihydrotetrazolo[1,5-a]pyrimidine-6-carboxylate] it was 5.4%. In the case of `CCOC(=O)C1=C(C)Nc2nnnn2C1c1ccc(OC)c2ccccc12` (stereo not drawn) [PT-504, ethyl 7-(4-methoxynaphthalen-1-yl)-5-methyl-4,7-dihydrotetrazolo[1,5-a]pyrimidine-6-carboxylate], the inhibition at 10 µM stood at 28.2%. `COCCOC(=O)C1=C(C)NC(C)=C(C(=O)OCCOC)C1c1sccc1Br` [PT-125, bis(2-methoxyethyl) 4-(3-bromothiophen-2-yl)-2,6-dimethyl-1,4-dihydropyridine-3,5-dicarboxylate]: the inhibition at 10 µM is 10.3%. The figure for `CCOC(=O)c1c(C)nc(C)c(C(=O)OCC)c1-c1sc2ccccc2c1C` [PT-117, diethyl 2,6-dimethyl-4-(3-methylbenzo[b]thiophen-2-yl)pyridine-3,5-dicarboxylate] is 38.9%; for `CC1=C(C(=O)OC(C)(C)c2ccccc2)C(c2cccc3ccccc23)n2nnnc2N1` (stereo not drawn) [PT-065, 2-phenylpropan-2-yl 5-methyl-7-(naphthalen-1-yl)-4,7-dihydrotetrazolo[1,5-a]pyrimidine-6-carboxylate] it is 59%.

In the case of `COC(=O)C1=C(C)Nc2nnnn2C1c1ccc(-c2ccc(OC)cc2)s1` (stereo not drawn) [PT-521, methyl 7-(5-(4-methoxyphenyl)thiophen-2-yl)-5-methyl-4,7-dihydrotetrazolo[1,5-a]pyrimidine-6-carboxylate], the inhibition at 10 µM was 37.5%. In the case of `CC1=C(C(=O)OCc2ccccc2)C(c2ccc(S(C)(=O)=O)cc2)n2nnnc2N1` (stereo not drawn) [PT-355, benzyl 5-methyl-7-(4-(methylsulfonyl)phenyl)-4,7-dihydrotetrazolo[1,5-a]pyrimidine-6-carboxylate] it was 14.8%. In the case of `O=C1OCC2=C1C(c1cccc3ccccc13)c1cn[nH]c1N2` (stereo not drawn) [PT-084, 4-(naphthalen-1-yl)-7,8-dihydro-1H-furo[3,4-e]pyrazolo[3,4-b]pyridin-5(4H)-one], the inhibition at 10 µM came to 16.9%. The figure for `CC1=C(C(=O)OC(C)C)C(c2ccc3ccccc3c2)n2nnnc2N1` (stereo not drawn) [PT-020, isopropyl 5-methyl-7-(naphthalen-2-yl)-4,7-dihydrotetrazolo[1,5-a]pyrimidine-6-carboxylate] is 47.7%; for `COC(=O)C1=C(C)Nc2nnnn2C1c1sc2ccccc2c1Br` (stereo not drawn) [PT-520, methyl 7-(3-bromobenzo[b]thiophen-2-yl)-5-methyl-4,7-dihydrotetrazolo[1,5-a]pyrimidine-6-carboxylate] it is 78.4%; for `CCOC(=O)C1=C(C(F)(F)F)Nc2nnnn2C1c1cccc2ccccc12` (stereo not drawn) [PT-009, ethyl 7-(naphthalen-1-yl)-5-(trifluoromethyl)-4,7-dihydrotetrazolo[1,5-a]pyrimidine-6-carboxylate] it is 8.2%.

Source of the values: patent US20090012103A1, “SUBSTITUTED HETEROCYCLIC COMPOUNDS” (priority 2007, published 2009).
